Results reported in US20230203081A1, “LINCOSAMIDE ANTIBIOTICS AND USES THEREOF” (President and Fellows of Harvard College, priority 2020, published 2023).
Converted amounts (≈) assume the structure as drawn. Where two headings read alike, the source gives them in different places.

How the values were obtained:
Type in all cases: cell-based
[1] = system: E. coli MP-74 LptD mutant; test: MIC (broth microdilution or agar dilution, CLSI); details: Escherichia coli
Method in brief: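 Triplicate CLSI determinations by broth or agar dilution, compound at 128-0.06 μg/mL in 2.5% DMSO; special handling for anaerobes. Broth microdilution used 5×10^5 CFU/mL inocula in cation-adjusted Mueller-Hinton broth.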

E. coli ATCC 25922 = test: MIC (broth microdilution or agar dilution, CLSI); details: Escherichia coli
Method in brief: (§1)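 Isolates other than streptococci and anaerobes, which had their own procedures, were grown overnight at 35° C on tryptic soy agar with 5% sheep blood. Suspensions were then diluted to a final inoculum of 5×10^5 CFU/mL in broth microdilution wells.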

E. coli MP-9 ΔTolC = test: MIC (broth microdilution or agar dilution, CLSI); details: Escherichia coli
Method in brief: as §1

E. faecalis ATCC 29212 = test: MIC (broth microdilution or agar dilution, CLSI); details: Enterococcus faecalis, ATCC29212, E. faecalis ATCC 29212; read-out: MIC
Method in brief: as §1

H. influenzae ATCC 49247 = test: MIC (broth microdilution or agar dilution, CLSI); details: Haemophilus influenzae, ATCC49247
Method in brief: as §1

S. aureus ATCC 29213 = test: MIC (broth microdilution or agar dilution, CLSI); details: Staphylococcus aureus, ATCC29213, S. aureus ATCC 29213; read-out: MIC
Method in brief: as §1

S. pneumoniae ATCC 49619 = test: MIC (broth microdilution or agar dilution, CLSI); details: Streptococcus pneumoniae, ATCC49619, S. pneumoniae ATCC 49619; read-out: MIC
Method in brief: as §1

S. pyogenes ATCC 19615 = test: MIC (broth microdilution or agar dilution, CLSI); details: Streptococcus pyogenes, ATCC19615, S. pyogenes ATCC 19615; read-out: MIC
Method in brief: as §1

S. aureus BAA 977 iErmA = test: microbe, parasite or virus in culture; details: Staphylococcus aureus, BAA977
Method in brief: as §1

S. aureus MP-549 msrA = test: microbe, parasite or virus in culture; details: Staphylococcus aureus, MP549MSRA, S. aureus MP-549 msrA
Method in brief: as §1

[2] = system: E. faecalis MMX 847; cErmB; test: MIC (broth microdilution or agar dilution, CLSI); details: Enterococcus faecalis; E. faecalis MMX 847; cErmB; read-out: MIC
Method in brief: as §1

S. aureus MMX 3035 cErmA = test: MIC (broth microdilution or agar dilution, CLSI); details: Staphylococcus aureus, MMX3035CERMA; S. aureus MMX 3035 cErmA; read-out: MIC
Method in brief: as §1

[3] = system: S. pneumoniae MMX 3028 cErmB; test: MIC (broth microdilution or agar dilution, CLSI); details: Streptococcus pneumoniae, MMX3028CERMB; S. pneumoniae MMX 3028 cErmB; read-out: MIC
Method in brief: as §1

[4] = system: S. pneumoniae MMX 3031 cMefA; test: MIC (broth microdilution or agar dilution, CLSI); details: Streptococcus pneumoniae, MMX3031CMEFA, S. pneumoniae MMX 3031 cMefA; read-out: MIC
Method in brief: as §1

[5] = system: S. pyogenes MMX 946; cErmB; test: MIC (broth microdilution or agar dilution, CLSI); details: Streptococcus pyogenes; S. pyogenes MMX 946; cErmB; read-out: MIC
Method in brief: as §1

[6] = ATCC25922, E. coli ATCC 25922, read-out: MIC
[7] = H. influenzae ATCC 49247, read-out: MIC

Q: Which results are given for CSC1O[C@H]([C@H](NC(=O)[C@@H]2[C@@H]3OCC[C@H](C4CCCCC4)C[C@H]3CN2C)[C@H](C)Cl)CC(O)[C@H]1O (stereo partly drawn) [FSA-513002a]?
A: MIC [1]: 64 µg/mL (≈ 123 µM); MIC (E. coli ATCC 25922; [6]): > 64 µg/mL; MIC (E. coli MP-9 ΔTolC): 64 µg/mL (≈ 123 µM); MIC (E. faecalis ATCC 29212): 2 µg/mL (≈ 3.85 µM); MIC (H. influenzae ATCC 49247; [7]): > 64 µg/mL; MIC (S. aureus ATCC 29213): 1 µg/mL (≈ 1.93 µM); MIC (S. pneumoniae ATCC 49619): 0.5 µg/mL (≈ 0.963 µM); MIC (S. pyogenes ATCC 19615): 1 µg/mL (≈ 1.93 µM)

Q: CSC1O[C@H]([C@H](NC(=O)[C@@H]2[C@@H]3OCC[C@@H](C4CCCCC4)C[C@H]3CN2C)[C@H](C)Cl)CC(O)[C@H]1O (stereo partly drawn) [FSA-513002b] was tested. Which MIC [1] did it give?
A: 16 µg/mL (≈ 30.8 µM)

Q: What about the MIC (E. coli ATCC 25922; [6]) of the same molecule?
A: 128 µg/mL (≈ 247 µM)

Q: What about the MIC (E. coli MP-9 ΔTolC) of the same molecule?
A: 8 µg/mL (≈ 15.4 µM)

Q: What about the MIC (E. faecalis ATCC 29212) of the same molecule?
A: 0.5 µg/mL (≈ 0.963 µM)

Q: And the MIC (H. influenzae ATCC 49247; [7])?
A: 8 µg/mL (≈ 15.4 µM)

Q: And the MIC (S. aureus ATCC 29213)?
A: 0.5 µg/mL (≈ 0.963 µM)

Q: What about the MIC (S. pneumoniae ATCC 49619) of the same molecule?
A: 0.25 µg/mL (≈ 0.482 µM)

Q: What about the MIC (S. pyogenes ATCC 19615) of the same molecule?
A: 0.25 µg/mL (≈ 0.482 µM)

Q: Which results are given for CSC1O[C@H]([C@H](NC(=O)[C@@H]2[C@@H]3OCC[C@H](CC(C)C)C[C@H]3CN2C)[C@H](C)Cl)CC(O)[C@H]1O (stereo partly drawn) [FSA-513003a]?
A: MIC (S. aureus BAA 977 iErmA): 0.12 µg/mL (≈ 0.243 µM); MIC (S. aureus MP-549 msrA): 0.12 µg/mL (≈ 0.243 µM); MIC [1]: 2 µg/mL (≈ 4.06 µM); MIC (E. coli ATCC 25922; [6]): 32 µg/mL (≈ 64.9 µM); MIC (E. coli MP-9 ΔTolC): 1 µg/mL (≈ 2.03 µM); MIC (E. faecalis ATCC 29212): 0.12 µg/mL (≈ 0.243 µM); MIC [2]: 8 µg/mL (≈ 16.2 µM); MIC (H. influenzae ATCC 49247; [7]): 2 µg/mL (≈ 4.06 µM); MIC (S. aureus ATCC 29213): 0.12 µg/mL (≈ 0.243 µM); MIC (S. aureus MMX 3035 cErmA): 16 µg/mL (≈ 32.4 µM); MIC (S. pneumoniae ATCC 49619): 0.06 µg/mL (≈ 0.122 µM); MIC [3]: 8 µg/mL (≈ 16.2 µM); MIC [4]: ≤ 0.06 µg/mL; MIC (S. pyogenes ATCC 19615): 0.06 µg/mL (≈ 0.122 µM); MIC [5]: 8 µg/mL (≈ 16.2 µM)

Q: How did the MIC [1] turn out when CSC1O[C@H]([C@H](NC(=O)[C@@H]2[C@@H]3OCC[C@H](CC(C)(C)C)C[C@H]3CN2C)[C@H](C)Cl)CC(O)[C@H]1O (stereo partly drawn) [FSA-513004a] was run?
A: 128 µg/mL (≈ 252 µM)

Q: What about the MIC (E. coli ATCC 25922; ATCC25922, E. coli ATCC 25922) of the same molecule?
A: > 128 µg/mL

Q: And the MIC (E. coli MP-9 ΔTolC)?
A: > 128 µg/mL

Q: What about the MIC (E. faecalis ATCC 29212) of the same molecule?
A: 1 µg/mL (≈ 1.97 µM)

Q: What about the MIC (H. influenzae ATCC 49247) of the same molecule?
A: 128 µg/mL (≈ 252 µM)

Q: And the MIC (S. aureus ATCC 29213)?
A: 1 µg/mL (≈ 1.97 µM)

Q: What about the MIC (S. pneumoniae ATCC 49619) of the same molecule?
A: 0.5 µg/mL (≈ 0.986 µM)

Q: And the MIC (S. pyogenes ATCC 19615)?
A: 0.25 µg/mL (≈ 0.493 µM)

Q: How did the MIC (S. aureus BAA 977 iErmA) turn out when CSC1O[C@H]([C@H](NC(=O)[C@H]2NC[C@@H]3C[C@@H](CC(C)C)CCO[C@H]32)[C@H](C)Cl)CC(O)[C@H]1O (stereo partly drawn) [FSA-513018a] was run?
A: ≤ 0.06 µg/mL

Q: What about the MIC (S. aureus MP-549 msrA) of the same molecule?
A: ≤ 0.06 µg/mL

Q: What about the MIC [1] of the same molecule?
A: 2 µg/mL (≈ 4.17 µM)

Q: What about the MIC (E. coli ATCC 25922; [6]) of the same molecule?
A: 16 µg/mL (≈ 33.4 µM)

Q: What about the MIC (E. coli MP-9 ΔTolC) of the same molecule?
A: 0.5 µg/mL (≈ 1.04 µM)

Q: And the MIC (E. faecalis ATCC 29212)?
A: ≤ 0.06 µg/mL

Q: And the MIC [2]?
A: 2 µg/mL (≈ 4.17 µM)

Q: And the MIC (H. influenzae ATCC 49247; [7])?
A: 2 µg/mL (≈ 4.17 µM)

Q: What about the MIC (S. aureus ATCC 29213) of the same molecule?
A: ≤ 0.06 µg/mL

Q: And the MIC (S. aureus MMX 3035 cErmA)?
A: 8 µg/mL (≈ 16.7 µM)

Q: What about the MIC (S. pneumoniae ATCC 49619) of the same molecule?
A: ≤ 0.06 µg/mL

Q: And the MIC [3]?
A: 0.5 µg/mL (≈ 1.04 µM)

Q: What about the MIC [4] of the same molecule?
A: ≤ 0.06 µg/mL

Q: What about the MIC (S. pyogenes ATCC 19615) of the same molecule?
A: ≤ 0.06 µg/mL

Q: What about the MIC [5] of the same molecule?
A: 0.5 µg/mL (≈ 1.04 µM)
